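48-hour exposure; five concentrations; linearly interpolated endpoints. GI50 = concentration required for 50% inhibition of growth. TGI is the concentration that stops growth completely.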
Key:
Experiment in all cases: DTP human tumour cell line panel, 48 h
786-0 renal = system: 786-0 renal
A498 renal = system: A498 renal
A549 NSCLC = system: A549 NSCLC
ACHN renal = system: ACHN renal
BT-549 breast = system: BT-549 breast
CAKI-1 renal = system: CAKI-1 renal
CCRF-CEM leukemia = system: CCRF-CEM leukemia
COLO 205 colon = system: COLO 205 colon
DU-145 prostate = system: DU-145 prostate
EKVX NSCLC = system: EKVX NSCLC
HCC-2998 colon = system: HCC-2998 colon
HCT-116 colon = system: HCT-116 colon
HCT-15 colon = system: HCT-15 colon
HL-60(TB) leukemia = system: HL-60(TB) leukemia
HOP-62 NSCLC = system: HOP-62 NSCLC
HOP-92 NSCLC = system: HOP-92 NSCLC
HS 578T breast = system: HS 578T breast
HT29 colon = system: HT29 colon
IGROV1 ovarian = system: IGROV1 ovarian
K-562 leukemia = system: K-562 leukemia
KM12 colon = system: KM12 colon
LOX IMVI melanoma = system: LOX IMVI melanoma
M14 melanoma = system: M14 melanoma
MALME-3M melanoma = system: MALME-3M melanoma
MCF7 breast = system: MCF7 breast
MDA-MB-231 breast = system: MDA-MB-231 breast
MDA-MB-435 = system: MDA-MB-435
MOLT-4 leukemia = system: MOLT-4 leukemia
NCI-H226 lung = system: NCI-H226 lung
NCI-H23 lung = system: NCI-H23 lung
NCI-H460 lung = system: NCI-H460 lung
NCI-H522 lung = system: NCI-H522 lung
NCI/ADR-RES ovarian = system: NCI/ADR-RES ovarian
OVCAR-3 ovarian = system: OVCAR-3 ovarian
OVCAR-4 ovarian = system: OVCAR-4 ovarian
OVCAR-5 ovarian = system: OVCAR-5 ovarian
OVCAR-8 ovarian = system: OVCAR-8 ovarian
PC-3 prostate = system: PC-3 prostate
RPMI-8226 leukemia = system: RPMI-8226 leukemia
RXF 393 renal = system: RXF 393 renal
SF-268 CNS = system: SF-268 CNS
SF-295 CNS = system: SF-295 CNS
SF-539 CNS = system: SF-539 CNS
SK-MEL-2 melanoma = system: SK-MEL-2 melanoma
SK-MEL-28 melanoma = system: SK-MEL-28 melanoma
SK-MEL-5 melanoma = system: SK-MEL-5 melanoma
SK-OV-3 ovarian = system: SK-OV-3 ovarian
SN12C renal = system: SN12C renal
SNB-19 CNS = system: SNB-19 CNS
SNB-75 CNS = system: SNB-75 CNS
SR leukemia = system: SR leukemia
SW-620 colon = system: SW-620 colon
T-47D breast = system: T-47D breast
TK-10 renal = system: TK-10 renal
U251 CNS = system: U251 CNS
UACC-257 melanoma = system: UACC-257 melanoma
UACC-62 melanoma = system: UACC-62 melanoma
UO-31 renal = system: UO-31 renal

Cc1ccc2sc3c(c2c1)OC(N)=C(C#N)C3c1cccc(F)c1 (stereo unspecified)
GI50 (786-0 renal): 458 nM
TGI (786-0 renal): 6490 nM
GI50 (A498 renal): 3350 nM
TGI (A498 renal): 17200 nM
GI50 (A549 NSCLC): 217 nM
TGI (A549 NSCLC): 11600 nM
GI50 (ACHN renal): 450 nM
TGI (ACHN renal): 10700 nM
GI50 (BT-549 breast): 137 nM
TGI (BT-549 breast): 1170 nM
GI50 (CAKI-1 renal): 183 nM
TGI (CAKI-1 renal): 11500 nM
GI50 (CCRF-CEM leukemia): 312 nM
TGI (CCRF-CEM leukemia): 24700 nM
GI50 (COLO 205 colon): 276 nM
TGI (COLO 205 colon): 779 nM
GI50 (DU-145 prostate): 541 nM
TGI (DU-145 prostate): > 33200 nM
GI50 (EKVX NSCLC): 573 nM
TGI (EKVX NSCLC): 18900 nM
GI50 (HCC-2998 colon): 264 nM
TGI (HCC-2998 colon): 1410 nM
GI50 (HCT-116 colon): 102 nM
TGI (HCT-116 colon): 1950 nM
GI50 (HCT-15 colon): 75.5 nM
TGI (HCT-15 colon): 6400 nM
GI50 (HL-60(TB) leukemia): 235 nM
TGI (HL-60(TB) leukemia): 671 nM
GI50 (HOP-62 NSCLC): 265 nM
TGI (HOP-62 NSCLC): 3970 nM
GI50 (HOP-92 NSCLC): 4320 nM
TGI (HOP-92 NSCLC): 20500 nM
GI50 (HS 578T breast): 194 nM
TGI (HS 578T breast): 8970 nM
GI50 (HT29 colon): 250 nM
TGI (HT29 colon): 878 nM
GI50 (IGROV1 ovarian): 318 nM
TGI (IGROV1 ovarian): 12700 nM
GI50 (K-562 leukemia): 42.6 nM
TGI (K-562 leukemia): > 40800 nM
GI50 (KM12 colon): 309 nM
TGI (KM12 colon): 16900 nM
GI50 (LOX IMVI melanoma): 160 nM
TGI (LOX IMVI melanoma): 2450 nM
GI50 (M14 melanoma): 137 nM
TGI (M14 melanoma): 1900 nM
GI50 (MALME-3M melanoma): 99.2 nM
TGI (MALME-3M melanoma): 11200 nM
GI50 (MCF7 breast): 30 nM
TGI (MCF7 breast): 11700 nM
GI50 (MDA-MB-231 breast): 457 nM
TGI (MDA-MB-231 breast): 3170 nM
GI50 (MDA-MB-435): 24.1 nM
TGI (MDA-MB-435): 62 nM
GI50 (MOLT-4 leukemia): 414 nM
TGI (MOLT-4 leukemia): 33600 nM
GI50 (NCI-H226 lung): 282 nM
TGI (NCI-H226 lung): 2810 nM
GI50 (NCI-H23 lung): 205 nM
TGI (NCI-H23 lung): 2560 nM
GI50 (NCI-H460 lung): 52.1 nM
TGI (NCI-H460 lung): 1370 nM
GI50 (NCI-H522 lung): 22.8 nM
TGI (NCI-H522 lung): 94.6 nM
GI50 (NCI/ADR-RES ovarian): 57.4 nM
TGI (NCI/ADR-RES ovarian): 1760 nM
GI50 (OVCAR-3 ovarian): 134 nM
TGI (OVCAR-3 ovarian): 4100 nM
GI50 (OVCAR-4 ovarian): 1340 nM
TGI (OVCAR-4 ovarian): 7480 nM
GI50 (OVCAR-5 ovarian): 370 nM
TGI (OVCAR-5 ovarian): 7580 nM
GI50 (OVCAR-8 ovarian): 257 nM
TGI (OVCAR-8 ovarian): 1250 nM
GI50 (PC-3 prostate): 305 nM
TGI (PC-3 prostate): 14800 nM
GI50 (RPMI-8226 leukemia): 324 nM
TGI (RPMI-8226 leukemia): 9770 nM
GI50 (RXF 393 renal): 36.5 nM
TGI (RXF 393 renal): 189 nM
GI50 (SF-268 CNS): 822 nM
TGI (SF-268 CNS): 24600 nM
GI50 (SF-295 CNS): 79.9 nM
TGI (SF-295 CNS): 770 nM
GI50 (SF-539 CNS): 155 nM
TGI (SF-539 CNS): 547 nM
GI50 (SK-MEL-2 melanoma): 308 nM
TGI (SK-MEL-2 melanoma): 18700 nM
GI50 (SK-MEL-28 melanoma): 825 nM
TGI (SK-MEL-28 melanoma): 20100 nM
GI50 (SK-MEL-5 melanoma): 391 nM
TGI (SK-MEL-5 melanoma): 2350 nM
GI50 (SK-OV-3 ovarian): 324 nM
TGI (SK-OV-3 ovarian): 10700 nM
GI50 (SN12C renal): 411 nM
TGI (SN12C renal): 6170 nM
GI50 (SNB-19 CNS): 339 nM
TGI (SNB-19 CNS): 13000 nM
GI50 (SNB-75 CNS): 158 nM
TGI (SNB-75 CNS): 1360 nM
GI50 (SR leukemia): 90 nM
TGI (SR leukemia): 30800 nM
GI50 (SW-620 colon): 111 nM
TGI (SW-620 colon): 13400 nM
GI50 (T-47D breast): 35.1 nM
TGI (T-47D breast): 26900 nM
GI50 (TK-10 renal): 1580 nM
TGI (TK-10 renal): 13500 nM
GI50 (U251 CNS): 151 nM
TGI (U251 CNS): 1950 nM
GI50 (UACC-257 melanoma): 162 nM
TGI (UACC-257 melanoma): 23300 nM
GI50 (UACC-62 melanoma): 53.5 nM
TGI (UACC-62 melanoma): 12500 nM
GI50 (UO-31 renal): 375 nM
TGI (UO-31 renal): 11100 nM

From PubChem BioAssay (NCI)
